Laboratory results reported in US9751854B2 (Millennium Pharmaceuticals, Inc., priority 2014, dated 2017).

The compounds below were run against human VPS34 (Homo sapiens (Human), UniProt Q8NEB9) (assay: Human VPS34 enzyme assay (Adapta TR-FRET ADP detection)). Conditions: not given.
Format: biochemical
Parameters: Percent Inhibition: dose or concentration left out as unconfirmed

Sequence of human VPS34 (Q8NEB9 whole entry): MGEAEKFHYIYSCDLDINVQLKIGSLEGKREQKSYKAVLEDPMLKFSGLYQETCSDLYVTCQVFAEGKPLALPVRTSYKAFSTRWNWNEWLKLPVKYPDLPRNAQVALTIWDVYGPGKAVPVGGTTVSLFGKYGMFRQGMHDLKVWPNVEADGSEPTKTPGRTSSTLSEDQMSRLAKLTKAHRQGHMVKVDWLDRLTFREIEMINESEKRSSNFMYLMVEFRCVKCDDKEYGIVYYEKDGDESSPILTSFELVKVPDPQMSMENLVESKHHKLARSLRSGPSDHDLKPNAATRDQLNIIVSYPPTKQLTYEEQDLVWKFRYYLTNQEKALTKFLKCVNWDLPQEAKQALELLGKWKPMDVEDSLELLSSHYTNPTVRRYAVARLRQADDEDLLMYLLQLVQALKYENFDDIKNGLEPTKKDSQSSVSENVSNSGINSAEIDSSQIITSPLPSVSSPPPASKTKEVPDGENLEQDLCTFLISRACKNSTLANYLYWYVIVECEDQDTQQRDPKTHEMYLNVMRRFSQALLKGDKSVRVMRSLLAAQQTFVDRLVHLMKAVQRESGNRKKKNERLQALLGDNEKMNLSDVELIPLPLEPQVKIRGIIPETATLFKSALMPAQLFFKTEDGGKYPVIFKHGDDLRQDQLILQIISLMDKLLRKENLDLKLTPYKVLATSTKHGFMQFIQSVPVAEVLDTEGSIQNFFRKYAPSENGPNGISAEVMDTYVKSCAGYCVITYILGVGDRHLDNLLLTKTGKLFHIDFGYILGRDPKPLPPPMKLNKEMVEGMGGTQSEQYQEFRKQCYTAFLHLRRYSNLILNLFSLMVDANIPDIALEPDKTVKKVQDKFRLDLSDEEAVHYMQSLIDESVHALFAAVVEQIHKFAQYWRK

Question: With CC(=O)Nc1cc(-c2cnc(C)c(NS(=O)(=O)c3cc(F)ccc3F)c2)ccn1 [Compound I-52] as the compound, how does the “Percent Inhibition” value read?
Answer: >99%

Question: Which “Percent Inhibition” value does the source give for CC(=O)Nc1cc(-c2cnc(N)c(S(=O)(=O)NCC(C)C)c2)ccn1 [Compound I-73, N-[6-amino-5-(isobutylsulfamoyl)-3,4′-bipyridin-2′-yl]acetamide] here?
Answer: >99%

Same assay, conditions: IC50 range class

Question: Which IC50 does the source give for COC(=O)Nc1cc(-c2cnc3ccn(CC4CC4)c3c2)ccn1 [Compound I-42, Methyl {4-[1-(cyclopropylmethyl)-1H-pyrrolo[3,2-b]pyridin-6-yl]pyridin-2-yl}carbamate] here?
Answer: 10 to 50 nM

Question: CC(=O)Nc1cc(-c2cnc(N)c(S(=O)(=O)Nc3ccccc3)c2)ccn1 [Compound I-43] was tested. Which IC50 did it give?
Answer: < 10 nM

Question: CCc1ccc(S(=O)(=O)Nc2cc(-c3ccnc(NC(C)=O)c3)cnc2C)cc1 [Compound I-44, N-(5-{[(4-ethylphenyl)sulfonyl]amino}-6-methyl-3,4′-bipyridin-2′-yl)acetamide] was tested. Which IC50 did it give?
Answer: < 10 nM

Question: How did the IC50 turn out when CC(=O)Nc1cc(-c2cnc(C)c(NS(=O)(=O)c3cccnc3)c2)ccn1 [Compound I-45, N-{6-methyl-5-[(pyridin-3-ylsulfonyl)amino]-3,4′-bipyridin-2′-yl}acetamide] was run?
Answer: < 10 nM

Question: Which IC50 does the source give for CC(=O)Nc1cc(-c2cnc(C)c(N(C)S(=O)(=O)c3ccccc3)c2)ccn1 [Compound I-46, N-{6-methyl-5-[methyl(phenylsulfonyl)amino]-3,4′-bipyridin-2′-yl}acetamide] here?
Answer: 10 to 50 nM

Question: How did the IC50 turn out when CC(=O)Nc1cc(-c2cncc(S(=O)(=O)N3CCCC3)c2)ccn1 [Compound I-47, N-[5-(pyrrolidin-1-ylsulfonyl)-3,4′-bipyridin-2′-yl]acetamide] was run?
Answer: 10 to 50 nM

Question: CC(=O)Nc1cc(-c2cncc(C(=O)N(C)C)c2)ccn1 [Compound I-48, 2′-acetamido-N,N-dimethyl-3,4′-bipyridine-5-carboxamide] was tested. Which IC50 did it give?
Answer: > 100 nM

Question: How did the IC50 turn out when CC(=O)Nc1cc(-c2cnc(N)c(S(=O)(=O)NCC3CC3)c2C)ccn1 [Compound I-49, N-{6-amino-5-[(cyclopropylmethyl)sulfamoyl]-4-methyl-3,4′-bipyridin-2′-yl}acetamide] was run?
Answer: 50 to 100 nM

Question: How did the IC50 turn out when CC(=O)Nc1cc(-c2cnc(N)c(S(=O)(=O)Cc3ccccc3C(F)(F)F)c2)ccn1 [Compound I-50, N-(6-amino-5-{[2-(trifluoromethyl)benzyl]sulfonyl}-3,4′-bipyridin-2′-yl)acetamide] was run?
Answer: 10 to 50 nM

Question: For CC(=O)Nc1cc(-c2cncc(S(C)(=O)=O)c2)ccn1 [Compound I-51, N-[5-(methylsulfonyl)-3,4′-bipyridin-2′-yl]acetamide], which IC50 is on record?
Answer: 50 to 100 nM

Question: With CC(=O)Nc1cc(-c2cnc(C)c(NS(=O)(=O)c3cc(F)ccc3F)c2)ccn1 [Compound I-52] as the compound, how does the IC50 read?
Answer: < 10 nM

Question: For CC(=O)Nc1cc(-c2cnc(NCC3CC3)c(N)c2)ccn1 [Compound I-53, N-{5-amino-6-{(cyclopropylmethyl)amino]-3,4′-bipyridin-2′-yl}acetamide], which IC50 is on record?
Answer: > 100 nM

Question: CC(=O)Nc1cc(-c2cnc3[nH]cc(CN4CCCC4)c3c2)ccn1 [Compound I-54, N-{4-[3-(pyrrolidin-1-ylmethyl)-1H-pyrrolo[2,3-b]pyridin-5-yl]pyridin-2-yl}acetamide] was tested. Which IC50 did it give?
Answer: > 100 nM

Question: For COC(=O)Nc1cc(-c2cnc(N)c(C(=O)N(C)C)c2)ccn1 [Compound I-55, methyl [6-amino-5-(dimethylcarbamoyl)-3,4′-bipyridin-2′-yl]carbamate], which IC50 is on record?
Answer: < 10 nM

Question: With CC(=O)Nc1cc(-c2cnc(Cl)c(NS(=O)(=O)c3ccccc3)c2)c(C)cn1 [Compound I-56, N-{6-chloro-5′-methyl-5-[(phenylsulfonyl)amino]-3,4′-bipyridin-2′-yl]acetamide] as the compound, how does the IC50 read?
Answer: 10 to 50 nM

Question: Which IC50 does the source give for CNC(=O)c1cc(-c2ccnc(NC(C)=O)c2)cnc1N [Compound I-57, 2′-acetamido-6-amino-N-methyl-3,4′-bipyridine-5-carboxamide] here?
Answer: 10 to 50 nM

Question: With COc1cc(F)ccc1S(=O)(=O)Nc1cc(-c2ccnc(NC(C)=O)c2)cnc1C [Compound I-58, N-(5-{[(4-fluoro-2-methoxyphenyl)sulfonyl]amino}-6-methyl-3,4′-bipyridin-2′-yl)acetamide] as the compound, how does the IC50 read?
Answer: < 10 nM

Question: How did the IC50 turn out when CC(=O)Nc1cc(-c2cnc(C)c(NS(=O)(=O)c3ccc(F)c(F)c3)c2)ccn1 [Compound I-59, N-(5-{[(3,4-difluorophenyl)sulfonyl]amino}-6-methyl-3,4′-bipyridin-2′-yl)acetamide] was run?
Answer: < 10 nM

Question: CC(=O)Nc1cc(-c2cnc(N)c(C(=O)N3CCC(F)(F)C3)c2)ccn1 [Compound I-60, N-{6-amino-5-[(3,3-difluoropyrrolidin-1-yl)carbonyl]-3,4′-bipyridin-2′-yl}acetamide] was tested. Which IC50 did it give?
Answer: 10 to 50 nM

Question: Which IC50 does the source give for CC(=O)Nc1cc(-c2cnc(N)c(S(N)(=O)=O)c2)ccn1 [Compound I-61, N-(6-amino-5-sulfamoyl-3,4′-bipyridin-2′-yl)acetamide] here?
Answer: 10 to 50 nM

Question: How did the IC50 turn out when CC(=O)Nc1cc(-c2cnc(C)c(NS(=O)(=O)c3ccccc3C(F)(F)F)c2)ccn1 [Compound I-62, N-[6-methyl-5-({[2-(trifluoromethyl)phenyl]sulfonyl}amino)-3,4′-bipyridin-2′-yl]acetamide] was run?
Answer: < 10 nM

Question: How did the IC50 turn out when CNc1ncc(-c2ccnc(NC(C)=O)c2)cc1S(=O)(=O)Nc1ccc(F)cc1F [Compound I-63, N-{5-[(2,4-difluorophenyl)sulfamoyl]-6-(methylamino)-3,4′-bipyridin-2′-yl}acetamide] was run?
Answer: < 10 nM

Question: CC(=O)Nc1cc(-c2cnc(NCC3CC3)c(NCC3CC3)c2)ccn1 [Compound I-65, N-{5,6-bis[(cyclopropylmethyl)amino]-3,4′-bipyridin-2′-yl}acetamide] was tested. Which IC50 did it give?
Answer: > 100 nM

Question: How did the IC50 turn out when CC(=O)Nc1cc(-c2cnc3[nH]c(C)nc3c2)ccn1 [Compound I-66, N-[4-(2-methyl-3H-imidazo[4,5-b]pyridin-6-yl)pyridin-2-yl]acetamide] was run?
Answer: > 100 nM

Question: With CC(=O)Nc1cc(-c2cnc3c(c2)CCN3)ccn1 [Compound I-67, N-[4-(2,3-dihydro-1H-pyrrolo[2,3-b]pyridin-5-yl)pyridin-2-yl]acetamide] as the compound, how does the IC50 read?
Answer: 50 to 100 nM

Question: CC(=O)Nc1cc(-c2cnc3c(c2)NS(=O)(=O)N3CC2CC2)ccn1 [Compound I-68, N-{4-[3-(cyclopropylmethyl)-2,2-dioxido-1,3-dihydro[1,2,5]thiadiazolo[3,4-b]pyridin-6-yl)pyridin-2-yl}acetamide] was tested. Which IC50 did it give?
Answer: > 100 nM

Question: CCS(=O)(=O)c1cc(-c2ccnc(NC(C)=O)c2)cnc1N [Compound I-69, N-[6-amino-5-(ethylsulfonyl)-3,4′-bipyridin-2′-yl]acetamide] was tested. Which IC50 did it give?
Answer: 10 to 50 nM

Question: How did the IC50 turn out when CC(=O)Nc1cc(-c2cnc(C)c(NS(=O)(=O)c3cccc(C(C)(C)C)c3)c2)ccn1 [Compound I-70] was run?
Answer: < 10 nM

Question: With CC(=O)Nc1cc(-c2cnc(N)c(C(=O)N3CCc4ccccc43)c2)ccn1 [Compound I-71, N-[6-amino-5-(2,3-dihydro-1H-indol-1-ylcarbonyl)-3,4′-bipyridin-2′-yl]acetamide] as the compound, how does the IC50 read?
Answer: < 10 nM

Question: With CC(=O)Nc1cc(-c2cnc(C)c(NS(=O)(=O)C3CCCCC3)c2)ccn1 [Compound I-72, N-{5-[(cyclohexylsulfonyl)amino]-6-methyl-3,4′-bipyridin-2′-yl]acetamide] as the compound, how does the IC50 read?
Answer: < 10 nM

Question: How did the IC50 turn out when CC(=O)Nc1cc(-c2cnc(N)c(S(=O)(=O)NCC(C)C)c2)ccn1 [Compound I-73, N-[6-amino-5-(isobutylsulfamoyl)-3,4′-bipyridin-2′-yl]acetamide] was run?
Answer: < 10 nM

Question: With COc1ccccc1S(=O)(=O)Nc1cc(-c2ccnc(NC(C)=O)c2)cnc1C [Compound I-74, N-(5-{[(2-methoxyphenyl)sulfonyl]amino}-6-methyl-3,4′-bipyridin-2′-yl)acetamide] as the compound, how does the IC50 read?
Answer: < 10 nM

Question: How did the IC50 turn out when CC(=O)Nc1cc(-c2cnc(C)c(C(=O)N(C)C)c2)ccn1 [Compound I-75, 2′-acetamido-N,N,6-trimethyl-3,4′-bipyridin-5-carboxamide] was run?
Answer: 50 to 100 nM
